Structures are written as SMILES. A value given as a limit tells only on which side of the number the result lay.

Type in all cases: biochemical
Experiment [1] deals with T1, recombinant alpha-glucosidase I (human full-length glucosidase I, Glu 1) (Homo sapiens, UniProt Q13724).
T1 construct: 6-His (C); made in house; host or cells: HEK-293T cells transduced with BacMam virus (virus raised in Sf9)
T1 sequence (Q13724 1-837): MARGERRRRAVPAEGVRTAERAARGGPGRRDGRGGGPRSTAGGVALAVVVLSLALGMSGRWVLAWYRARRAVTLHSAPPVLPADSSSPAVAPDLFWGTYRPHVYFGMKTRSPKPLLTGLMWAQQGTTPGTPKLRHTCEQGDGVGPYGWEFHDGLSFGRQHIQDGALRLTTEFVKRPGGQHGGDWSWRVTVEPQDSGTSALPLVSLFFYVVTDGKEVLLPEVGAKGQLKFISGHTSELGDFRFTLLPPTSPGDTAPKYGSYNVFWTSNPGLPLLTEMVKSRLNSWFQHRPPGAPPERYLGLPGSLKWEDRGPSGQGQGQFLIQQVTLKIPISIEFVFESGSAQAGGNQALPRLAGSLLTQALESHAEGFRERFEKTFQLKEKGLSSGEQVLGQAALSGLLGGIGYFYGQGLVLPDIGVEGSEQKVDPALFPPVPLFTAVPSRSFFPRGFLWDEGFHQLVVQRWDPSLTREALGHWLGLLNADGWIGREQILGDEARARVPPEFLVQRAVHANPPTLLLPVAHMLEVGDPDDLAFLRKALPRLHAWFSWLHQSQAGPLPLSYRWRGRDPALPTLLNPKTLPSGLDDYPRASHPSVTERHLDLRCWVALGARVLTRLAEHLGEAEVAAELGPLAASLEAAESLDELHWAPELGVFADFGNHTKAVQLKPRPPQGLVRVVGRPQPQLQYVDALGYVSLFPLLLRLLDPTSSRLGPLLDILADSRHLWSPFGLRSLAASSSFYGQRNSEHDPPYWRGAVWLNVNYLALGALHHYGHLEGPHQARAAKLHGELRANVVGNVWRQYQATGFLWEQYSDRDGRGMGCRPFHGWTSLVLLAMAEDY
As to the kind of experiment: Alpha-glucosidase I assay (Amplex Red glucose detection, synthetic trisaccharide substrate). The note with it: Glucosidase 1; read-out: Glu 1 IC50. A digest of the protocol: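 Compound dilution series incubated 60 min at 37° C with recombinant His-tagged human glucosidase I ([…]), after which trisaccharide substrate analog was added for 90 min at 37° C. Reaction quenched with 1.5M Tris pH 8; D-glucose detected by Amplex Red fluorescence, 560/590 nm. 4-PL curve fit of percent inhibition gave IC50.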

Experiment [2] concerns the target T2, recombinant alpha-glucosidase II (murine full-length glucosidase II, alpha and beta subunits, Glu 2) (Mus musculus, UniProt Q8BHN3).
T2 construct: made in house; host or cells: HEK-293T cells transduced with BacMam viruses (75% alpha, 25% beta); protein harvested from culture supernatant
Briefly: Alpha-glucosidase II assay (4-methylumbelliferyl-alpha-D-pyranoside substrate, fluorescence). The note with it: Glucosidase 2; read-out: Glu2 IC50.

Experiment [3] deals with rat maltase (partially purified alpha-glucosidase from intestinal rat powder). As to the kind of experiment: Intestinal alpha-glucosidase assay, maltose substrate (Glucose GO Kit). The gist of the method:
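First step: 60 min, 37 °C, compound with partially purified rat intestinal alpha-glucosidase. Next, maltose or sucrose for 30 min at 37 °C, ended at 90 °C for 5 min. Glucose quantified enzymatically; concentration–inhibition data fitted 4-PL for IC50.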

The target in experiment [4] is rat sucrase (partially purified alpha-glucosidase from intestinal rat powder) (Rattus norvegicus, UniProt P23739). As to the kind of experiment: Intestinal alpha-glucosidase assay, sucrose substrate (Glucose GO Kit). The gist of the method:
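Glucose release is the read-out: compounds at multiple dilutions are first held with partially purified rat intestinal alpha-glucosidase for 60 min at 37 °C, after which maltose or sucrose substrate reacts for 30 min at 37 °C before a 5 min 90 °C stop. IC50 comes from a four-parameter logistic fit.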

rat sucrase (partially purified alpha-glucosidase from intestinal rat powder), sequence (P23739 whole entry): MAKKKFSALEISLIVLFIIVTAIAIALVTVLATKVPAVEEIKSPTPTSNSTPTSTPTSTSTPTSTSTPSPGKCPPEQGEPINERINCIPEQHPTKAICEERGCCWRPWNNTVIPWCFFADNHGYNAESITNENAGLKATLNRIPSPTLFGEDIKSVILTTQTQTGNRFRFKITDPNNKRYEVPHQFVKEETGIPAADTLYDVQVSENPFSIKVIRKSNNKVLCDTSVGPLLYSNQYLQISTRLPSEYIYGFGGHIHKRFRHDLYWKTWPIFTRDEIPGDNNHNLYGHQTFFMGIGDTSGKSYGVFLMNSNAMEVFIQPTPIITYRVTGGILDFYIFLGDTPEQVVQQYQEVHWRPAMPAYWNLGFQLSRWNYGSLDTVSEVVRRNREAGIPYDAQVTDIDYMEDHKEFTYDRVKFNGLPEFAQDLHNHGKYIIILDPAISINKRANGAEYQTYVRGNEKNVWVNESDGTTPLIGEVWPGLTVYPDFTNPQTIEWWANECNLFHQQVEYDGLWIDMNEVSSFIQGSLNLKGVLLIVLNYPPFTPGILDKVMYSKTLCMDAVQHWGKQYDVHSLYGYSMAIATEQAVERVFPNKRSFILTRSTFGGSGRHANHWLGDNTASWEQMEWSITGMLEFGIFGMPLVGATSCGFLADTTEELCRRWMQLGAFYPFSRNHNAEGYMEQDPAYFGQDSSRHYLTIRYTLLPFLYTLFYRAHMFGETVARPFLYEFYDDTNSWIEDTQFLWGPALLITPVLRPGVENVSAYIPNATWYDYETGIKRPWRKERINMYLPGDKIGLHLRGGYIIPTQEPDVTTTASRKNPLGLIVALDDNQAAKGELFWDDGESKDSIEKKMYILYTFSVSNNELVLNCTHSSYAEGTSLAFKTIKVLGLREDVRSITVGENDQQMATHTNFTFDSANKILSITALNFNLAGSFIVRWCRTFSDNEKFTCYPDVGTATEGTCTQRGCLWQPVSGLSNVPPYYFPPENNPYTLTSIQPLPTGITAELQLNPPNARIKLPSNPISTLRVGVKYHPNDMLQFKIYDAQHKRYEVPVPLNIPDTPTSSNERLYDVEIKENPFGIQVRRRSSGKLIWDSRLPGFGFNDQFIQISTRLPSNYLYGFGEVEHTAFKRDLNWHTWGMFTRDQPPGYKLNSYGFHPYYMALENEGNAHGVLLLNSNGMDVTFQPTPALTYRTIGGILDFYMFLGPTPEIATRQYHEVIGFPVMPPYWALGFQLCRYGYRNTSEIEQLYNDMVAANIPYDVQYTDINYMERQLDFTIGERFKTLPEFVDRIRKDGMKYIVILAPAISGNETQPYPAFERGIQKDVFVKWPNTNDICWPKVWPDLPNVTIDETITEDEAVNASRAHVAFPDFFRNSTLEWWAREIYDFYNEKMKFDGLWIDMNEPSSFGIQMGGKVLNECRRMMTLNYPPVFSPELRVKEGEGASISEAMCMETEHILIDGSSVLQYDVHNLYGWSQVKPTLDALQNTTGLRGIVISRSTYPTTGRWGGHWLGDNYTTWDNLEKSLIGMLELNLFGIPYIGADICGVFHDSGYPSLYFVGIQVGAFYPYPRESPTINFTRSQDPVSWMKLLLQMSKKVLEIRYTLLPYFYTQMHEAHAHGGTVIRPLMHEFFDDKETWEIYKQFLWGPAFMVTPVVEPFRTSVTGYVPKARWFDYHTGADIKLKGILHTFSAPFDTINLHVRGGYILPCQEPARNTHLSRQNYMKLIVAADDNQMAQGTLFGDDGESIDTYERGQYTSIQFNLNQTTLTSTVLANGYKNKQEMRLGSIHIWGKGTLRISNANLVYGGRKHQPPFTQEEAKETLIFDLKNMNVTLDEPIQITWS
T2 sequence (O08795 15-521): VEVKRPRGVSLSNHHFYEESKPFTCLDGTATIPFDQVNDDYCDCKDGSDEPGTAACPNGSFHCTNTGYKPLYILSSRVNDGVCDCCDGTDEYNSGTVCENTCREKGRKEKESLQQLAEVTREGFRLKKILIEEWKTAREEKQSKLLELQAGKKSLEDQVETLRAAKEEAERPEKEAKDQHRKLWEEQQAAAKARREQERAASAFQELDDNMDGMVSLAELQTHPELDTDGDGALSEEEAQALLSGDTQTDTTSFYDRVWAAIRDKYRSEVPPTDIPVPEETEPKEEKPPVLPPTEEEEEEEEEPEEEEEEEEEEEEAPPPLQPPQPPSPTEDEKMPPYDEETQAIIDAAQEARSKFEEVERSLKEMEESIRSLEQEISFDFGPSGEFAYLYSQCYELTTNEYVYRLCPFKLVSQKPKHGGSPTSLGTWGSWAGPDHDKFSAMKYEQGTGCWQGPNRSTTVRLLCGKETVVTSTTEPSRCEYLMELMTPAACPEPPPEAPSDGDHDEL
T2 sequence (Q8BHN3 33-944): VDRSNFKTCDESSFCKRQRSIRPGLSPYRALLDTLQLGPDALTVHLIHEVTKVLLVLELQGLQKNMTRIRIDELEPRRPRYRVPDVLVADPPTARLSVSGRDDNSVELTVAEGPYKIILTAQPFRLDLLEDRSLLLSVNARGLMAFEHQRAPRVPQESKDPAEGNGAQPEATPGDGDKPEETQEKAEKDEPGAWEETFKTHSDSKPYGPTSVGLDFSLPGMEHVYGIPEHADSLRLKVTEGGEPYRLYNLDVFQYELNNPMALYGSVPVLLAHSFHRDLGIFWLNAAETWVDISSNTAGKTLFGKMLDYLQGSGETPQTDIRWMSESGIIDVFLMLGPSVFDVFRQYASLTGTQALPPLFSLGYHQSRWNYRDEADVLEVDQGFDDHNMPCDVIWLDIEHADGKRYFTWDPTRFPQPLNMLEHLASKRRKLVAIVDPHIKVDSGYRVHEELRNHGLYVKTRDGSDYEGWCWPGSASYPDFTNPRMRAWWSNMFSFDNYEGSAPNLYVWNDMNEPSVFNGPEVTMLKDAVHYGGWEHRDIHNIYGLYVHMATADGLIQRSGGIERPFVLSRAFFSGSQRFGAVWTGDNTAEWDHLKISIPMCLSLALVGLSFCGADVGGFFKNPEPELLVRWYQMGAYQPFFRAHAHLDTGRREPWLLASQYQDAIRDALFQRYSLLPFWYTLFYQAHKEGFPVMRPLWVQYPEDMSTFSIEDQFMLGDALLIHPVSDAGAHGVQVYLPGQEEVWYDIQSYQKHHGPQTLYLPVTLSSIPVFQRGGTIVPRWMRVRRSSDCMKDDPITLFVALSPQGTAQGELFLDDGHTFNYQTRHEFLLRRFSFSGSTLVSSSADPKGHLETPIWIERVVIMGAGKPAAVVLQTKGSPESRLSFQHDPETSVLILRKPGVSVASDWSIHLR

Take `[N-]=[N+]=Nc1ccc(NCCCCCCN2C[C@H](O)[C@@H](O)[C@H](O)[C@H]2CO)c(C(=O)O)c1` [Compound 1297, 5-azido-2-({6-[(2R,3R,4R,5S)-3,4,5-trihydroxy-2-(hydroxymethyl)piperidin-1-yl]hexyl}amino)benzoic acid]: the IC50 (as a rule, the concentration needed to halve the response being measured) stood at 1.3 µM in experiment [1], 0.097 µM in experiment [2], 0.169 µM in experiment [3] and 0.8 µM in experiment [4].

For the molecule `N#CCc1ccc(NCCCCCCN2C[C@H](O)[C@@H](O)[C@H](O)[C@H]2CO)c([N+](=O)[O-])c1` [Compound 1299, 2-[3-nitro-4-({6-[(2R,3R,4R,5S)-3,4,5-trihydroxy-2-(hydroxymethyl)piperidin-1-yl]hexyl}amino)phenyl]acetonitrile], the IC50 in experiment [1] came out at 0.189 µM; in experiment [2] it was 0.017 µM; in experiment [3] it was 0.005 µM; in experiment [4] it was 0.037 µM.

As to `N#Cc1ccc(NCCCCCCN2C[C@H](O)[C@@H](O)[C@H](O)[C@H]2CO)c([N+](=O)[O-])c1` [Compound 1304, 3-nitro-4-({6-[(2R,3R,4R,5S)-3,4,5-trihydroxy-2-(hydroxymethyl)piperidin-1-yl]hexyl}amino)benzonitrile], the IC50 in experiment [1] is 0.178 µM; in experiment [2], 0.022 µM; in experiment [3], 0.017 µM; in experiment [4] it was 0.06 µM.

As to `COc1ccc(-c2ccc(CCCN3C[C@H](O)[C@@H](O)[C@H](O)[C@H]3CO)cc2)cc1` [Compound 1305, (2R,3R,4R,5S)-2-(hydroxymethyl)-1-(3-{4′-methoxy-[1,1′-biphenyl]-4-yl}propyl)piperidine-3,4,5-triol], the IC50 in experiment [1] was 2.83 µM; in experiment [2], below 0.001 µM; in experiment [3], below 0.01 µM; in experiment [4], 1.01 µM.

As for `COc1ccc(-c2ccc(CN3C[C@H](O)[C@@H](O)[C@H](O)[C@H]3CO)cc2)cc1` [Compound 1306, (2R,3R,4R,5S)-2-(hydroxymethyl)-1-({4′-methoxy-[1,1′-biphenyl]-4-yl}methyl)piperidine-3,4,5-triol], the IC50 in experiment [1] was 0.745 µM; in experiment [2], 44 µM; in experiment [3], below 0.01 µM; in experiment [4] it was below 0.01 µM.

For `COCCc1ccc(CCCN2C[C@H](O)[C@@H](O)[C@H](O)[C@H]2CO)cc1` [Compound 1308, (2R,3R,4R,5S)-2-(hydroxymethyl)-1-{3-[4-(2-methoxyethyl)phenyl]propyl}piperidine-3,4,5-triol], the IC50 in experiment [1] was above 100 µM; in experiment [2], 0.125 µM; in experiment [3] it was 0.088 µM; in experiment [4], 0.331 µM.

Take `COc1ccc(CCCCCCCN2C[C@H](O)[C@@H](O)[C@H](O)[C@H]2CO)cc1` [Compound 1309, (2R,3R,4R,5S)-2-(hydroxymethyl)-1-[7-(4-methoxyphenyl)heptyl]piperidine-3,4,5-triol]: the IC50 in experiment [1] was determined as 0.7 µM; in experiment [2], 0.037 µM; in experiment [3], 0.022 µM; in experiment [4], 0.155 µM.

On to `COc1ccc(CCCCCN2C[C@H](O)[C@@H](O)[C@H](O)[C@H]2CO)cc1` [Compound 1310, (2R,3R,4R,5S)-2-(hydroxymethyl)-1-[5-(4-methoxyphenyl)pentyl]piperidine-3,4,5-triol], for which the IC50 in experiment [1] is 0.678 µM; in experiment [2], 0.078 µM; in experiment [3], below 0.01 µM; in experiment [4], 0.371 µM.

Consider `OC[C@@H]1[C@@H](O)[C@H](O)[C@@H](O)CN1CCCCCCCCC1CNCCO1` (stereo partly drawn) [Compound 1311, (2R,3R,4R,5S)-2-(hydroxymethyl)-1-[8-(morpholin-2-yl)octyl]piperidine-3,4,5-triol], for which the IC50 in experiment [1] is 1.76 µM; in experiment [2] it was 0.197 µM; in experiment [3], below 0.01 µM; in experiment [4], 1.01 µM.

On to `Cc1cc(NCc2ccc(CN3C[C@H](O)[C@@H](O)[C@H](O)[C@H]3CO)cc2)cc(-c2ncco2)c1` [Compound 1315, (2R,3R,4R,5S)-2-(hydroxymethyl)-1-{[4-({[3-methyl-5-(1,3-oxazol-2-yl)phenyl]amino}methyl)phenyl]methyl}piperidine-3,4,5-triol], for which the IC50 in experiment [1] was 0.04 µM; in experiment [2] it was 0.907 µM; in experiment [3], 0.009 µM; in experiment [4] it was 0.044 µM.

With `Cc1cc(NCc2ccc(CN3C[C@H](O)[C@@H](O)[C@H](O)[C@H]3CO)cc2)cc(-n2nccn2)c1` [Compound 1316, (2R,3R,4R,5S)-2-(hydroxymethyl)-1-{[4-({[3-methyl-5-(2H-1,2,3-triazol-2-yl)phenyl]amino}methyl)phenyl]methyl}piperidine-3,4,5-triol], the half-maximal inhibitory concentration (IC50) in experiment [1] was determined as 0.016 µM; in experiment [2] it was 0.194 µM; in experiment [3], 0.006 µM; in experiment [4] it was 0.014 µM.

Turning to `Cc1cc(NCc2ccc(CN3C[C@H](O)[C@@H](O)[C@H](O)[C@H]3CO)cc2)cc(-c2ccco2)c1` [Compound 1317, (2R,3R,4R,5S)-1-{[4-({[3-(furan-2-yl)-5-methylphenyl]amino}methyl)phenyl]methyl}-2-(hydroxymethyl)piperidine-3,4,5-triol], the IC50 is below 0.001 µM in experiment [1], 1.2 µM in experiment [2], below 0.001 µM in experiment [3] and below 0.001 µM in experiment [4].

As to `Cc1cc(NCc2cccc(CN3C[C@H](O)[C@@H](O)[C@H](O)[C@H]3CO)n2)cc(-c2ncccn2)c1` [Compound 1322, (2R,3R,4R,5S)-2-(hydroxymethyl)-1-{[6-({[3-methyl-5-(pyrimidin-2-yl)phenyl]amino}methyl)pyridin-2-yl]methyl}piperidine-3,4,5-triol], the IC50 in experiment [1] was determined as 3.12 µM; in experiment [2] it was 32.4 µM; in experiment [3] it was 0.388 µM; in experiment [4], 0.481 µM.

For the molecule `Cc1cc(NCc2ccc(CN3C[C@H](O)[C@@H](O)[C@H](O)[C@H]3CO)cc2)cc(-n2ccnn2)c1` [Compound 1323, (2R,3R,4R,5S)-2-(hydroxymethyl)-1-{[4-({[3-methyl-5-(1H-1,2,3-triazol-1-yl)phenyl]amino}methyl)phenyl]methyl}piperidine-3,4,5-triol], the IC50 in experiment [1] was determined as 0.011 µM; in experiment [2] it was 0.382 µM; in experiment [3], 0.011 µM; in experiment [4], 0.037 µM.

Consider `OC[C@@H]1[C@@H](O)[C@H](O)[C@@H](O)CN1Cc1cnc(CNc2cc(-c3ncccn3)cc(C3CC3)c2)cn1` [Compound 1329, (2R,3R,4R,5S)-1-{[5-({[3-cyclopropyl-5-(pyrimidin-2-yl)phenyl]amino}methyl)pyrazin-2-yl]methyl}-2-(hydroxymethyl)piperidine-3,4,5-triol], for which the IC50 in experiment [1] came out at 1.87 µM; in experiment [2], 2.55 µM; in experiment [3], 0.548 µM; in experiment [4] it was 0.675 µM.

Regarding `Cc1cc(NCc2cnc(CN3C[C@H](O)[C@@H](O)[C@H](O)[C@H]3CO)cn2)cc(-c2ccc[nH]2)c1` [Compound 1330, (2R,3R,4R,5S)-2-(hydroxymethyl)-1-{[5-({[3-methyl-5-(1H-pyrrol-2-yl)phenyl]amino}methyl)pyrazin-2-yl]methyl}piperidine-3,4,5-triol], the IC50 amounted to 1.42 µM in experiment [1], 14.4 µM in experiment [2], 0.577 µM in experiment [3] and 0.595 µM in experiment [4].

`Cc1cc(NCc2cnc(CN3C[C@H](O)[C@@H](O)[C@H](O)[C@H]3CO)cn2)cc(N2CCOCC2)c1` [Compound 1332, (2R,3R,4R,5S)-2-(hydroxymethyl)-1-{[5-({[3-methyl-5-(morpholin-4-yl)phenyl]amino}methyl)pyrazin-2-yl]methyl}piperidine-3,4,5-triol]: the 50% inhibitory concentration (IC50) was 2.82 µM in experiment [1], above 100 µM in experiment [2], 0.573 µM in experiment [3] and 3.5 µM in experiment [4].

Source of the values: patent US20250197372A1 (priority 2020, published 2025).
